Target: T1, tyrosinase from mushroom
T1 construct: gene PPO3; commercial native mushroom enzyme (Fischer Scientific)
Experiment: tyrosinase inhibition assay
Assay type: biochemical
Details: positive control; anomer of arbutin not stated
Description: tyrosinase inhibition assay on tyrosinase from mushroom

OC[C@H]1O[C@@H](Oc2ccc(O)cc2)[C@H](O)[C@@H](O)[C@@H]1O [Arbutin]
Tyrosinase: 0.17 ± 0.01 mg/mL

From PMC10574883, “Harnessing the Bioactive Potential of Limonium spathulatum (Desf.) Kuntze: Insights into Enzyme Inhibition and Phytochemical Profile” (Plants, 2023)
